Measurements from PubChem BioAssay (NCI).
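Method: 48-hour compound exposure of cells in 96-well plates, five concentrations, linear interpolation of endpoints. GI50 is the concentration that inhibits growth by half. TGI: concentration producing complete growth inhibition.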

Experiments:
Test in all cases: NCI tumour cell line growth inhibition, 48 h
EKVX NSCLC = system: EKVX NSCLC
KM12 colon = system: KM12 colon
UACC-257 melanoma = system: UACC-257 melanoma
HOP-62 NSCLC = system: HOP-62 NSCLC
RXF 393 renal = system: RXF 393 renal
ACHN renal = system: ACHN renal
MDA-MB-231 breast = system: MDA-MB-231 breast
CAKI-1 renal = system: CAKI-1 renal
MDA-MB-435 = system: MDA-MB-435
OVCAR-4 ovarian = system: OVCAR-4 ovarian
MALME-3M melanoma = system: MALME-3M melanoma
BT-549 breast = system: BT-549 breast
NCI-H226 lung = system: NCI-H226 lung
SR leukemia = system: SR leukemia
HL-60(TB) leukemia = system: HL-60(TB) leukemia
SNB-19 CNS = system: SNB-19 CNS
SN12C renal = system: SN12C renal
SW-620 colon = system: SW-620 colon
OVCAR-3 ovarian = system: OVCAR-3 ovarian
UO-31 renal = system: UO-31 renal
K-562 leukemia = system: K-562 leukemia
SK-MEL-5 melanoma = system: SK-MEL-5 melanoma
U251 CNS = system: U251 CNS
NCI-H460 lung = system: NCI-H460 lung
CCRF-CEM leukemia = system: CCRF-CEM leukemia
HCC-2998 colon = system: HCC-2998 colon
NCI-H522 lung = system: NCI-H522 lung
OVCAR-5 ovarian = system: OVCAR-5 ovarian
DU-145 prostate = system: DU-145 prostate
SK-OV-3 ovarian = system: SK-OV-3 ovarian
SNB-75 CNS = system: SNB-75 CNS
TK-10 renal = system: TK-10 renal
SF-539 CNS = system: SF-539 CNS
NCI/ADR-RES ovarian = system: NCI/ADR-RES ovarian
OVCAR-8 ovarian = system: OVCAR-8 ovarian
MCF7 breast = system: MCF7 breast
A549 NSCLC = system: A549 NSCLC
SF-295 CNS = system: SF-295 CNS
LOX IMVI melanoma = system: LOX IMVI melanoma
MOLT-4 leukemia = system: MOLT-4 leukemia
HS 578T breast = system: HS 578T breast
NCI-H23 lung = system: NCI-H23 lung
SF-268 CNS = system: SF-268 CNS
786-0 renal = system: 786-0 renal
HT29 colon = system: HT29 colon
SK-MEL-2 melanoma = system: SK-MEL-2 melanoma
HCT-116 colon = system: HCT-116 colon
M14 melanoma = system: M14 melanoma
HOP-92 NSCLC = system: HOP-92 NSCLC
RPMI-8226 leukemia = system: RPMI-8226 leukemia
PC-3 prostate = system: PC-3 prostate
IGROV1 ovarian = system: IGROV1 ovarian
UACC-62 melanoma = system: UACC-62 melanoma
HCT-15 colon = system: HCT-15 colon
COLO 205 colon = system: COLO 205 colon
A498 renal = system: A498 renal
T-47D breast = system: T-47D breast
SK-MEL-28 melanoma = system: SK-MEL-28 melanoma
MDA-N = system: MDA-N

Cc1nc2sc(C(=O)Nc3cccc(Br)c3)c(N)c2cc1C(O)c1ccccc1 (stereo not given)
GI50 (EKVX NSCLC): 1.2 µM
TGI (EKVX NSCLC): 21 µM
GI50 (KM12 colon): 0.689 µM
TGI (KM12 colon): 12.6 µM
GI50 (UACC-257 melanoma): 0.847 µM
TGI (UACC-257 melanoma): 25.2 µM
GI50 (HOP-62 NSCLC): 1.57 µM
TGI (HOP-62 NSCLC): 32.4 µM
GI50 (RXF 393 renal): 0.483 µM
TGI (RXF 393 renal): 10.9 µM
GI50 (ACHN renal): 0.768 µM
TGI (ACHN renal): 14.7 µM
GI50 (MDA-MB-231 breast): 1.85 µM
TGI (MDA-MB-231 breast): 16.4 µM
GI50 (CAKI-1 renal): 0.632 µM
TGI (CAKI-1 renal): 15.6 µM
GI50 (MDA-MB-435): 0.199 µM
TGI (MDA-MB-435): 0.449 µM
GI50 (OVCAR-4 ovarian): 1.31 µM
TGI (OVCAR-4 ovarian): 20.4 µM
GI50 (MALME-3M melanoma): 0.761 µM
TGI (MALME-3M melanoma): 22.3 µM
GI50 (BT-549 breast): 1.75 µM
TGI (BT-549 breast): 19.9 µM
GI50 (NCI-H226 lung): 2 µM
TGI (NCI-H226 lung): 24.3 µM
GI50 (SR leukemia): 0.301 µM
TGI (SR leukemia): > 37.3 µM
GI50 (HL-60(TB) leukemia): 0.395 µM
TGI (HL-60(TB) leukemia): 1.6 µM
GI50 (SNB-19 CNS): 1.48 µM
TGI (SNB-19 CNS): 18.9 µM
GI50 (SN12C renal): 0.894 µM
TGI (SN12C renal): 13.3 µM
GI50 (SW-620 colon): 0.375 µM
TGI (SW-620 colon): > 38 µM
GI50 (OVCAR-3 ovarian): 0.392 µM
TGI (OVCAR-3 ovarian): 6.23 µM
GI50 (UO-31 renal): 1.82 µM
TGI (UO-31 renal): 16.5 µM
GI50 (K-562 leukemia): 0.364 µM
TGI (K-562 leukemia): > 42.7 µM
GI50 (SK-MEL-5 melanoma): 0.552 µM
TGI (SK-MEL-5 melanoma): 1.96 µM
GI50 (U251 CNS): 0.52 µM
TGI (U251 CNS): > 70.9 µM
GI50 (NCI-H460 lung): 0.391 µM
TGI (NCI-H460 lung): 4.74 µM
GI50 (CCRF-CEM leukemia): 0.413 µM
TGI (CCRF-CEM leukemia): > 43.2 µM
GI50 (HCC-2998 colon): 2.4 µM
TGI (HCC-2998 colon): 12.1 µM
GI50 (NCI-H522 lung): 0.726 µM
TGI (NCI-H522 lung): > 28.4 µM
GI50 (OVCAR-5 ovarian): 3.09 µM
TGI (OVCAR-5 ovarian): 20.1 µM
GI50 (DU-145 prostate): 0.672 µM
TGI (DU-145 prostate): 13.9 µM
GI50 (SK-OV-3 ovarian): 1.76 µM
TGI (SK-OV-3 ovarian): 19.1 µM
GI50 (SNB-75 CNS): 0.224 µM
TGI (SNB-75 CNS): 4.15 µM
GI50 (TK-10 renal): 2.22 µM
TGI (TK-10 renal): 26.7 µM
GI50 (SF-539 CNS): 0.558 µM
TGI (SF-539 CNS): 5.4 µM
GI50 (NCI/ADR-RES ovarian): 0.619 µM
TGI (NCI/ADR-RES ovarian): 8.47 µM
GI50 (OVCAR-8 ovarian): 1.42 µM
TGI (OVCAR-8 ovarian): 55.1 µM
GI50 (MCF7 breast): 0.372 µM
TGI (MCF7 breast): 17 µM
GI50 (A549 NSCLC): 0.9 µM
TGI (A549 NSCLC): > 71.3 µM
GI50 (SF-295 CNS): 0.765 µM
TGI (SF-295 CNS): 12.1 µM
GI50 (LOX IMVI melanoma): 0.731 µM
TGI (LOX IMVI melanoma): 22.9 µM
GI50 (MOLT-4 leukemia): 0.58 µM
TGI (MOLT-4 leukemia): > 100 µM
GI50 (HS 578T breast): 0.424 µM
TGI (HS 578T breast): 9.21 µM
GI50 (NCI-H23 lung): 1.13 µM
TGI (NCI-H23 lung): 17.9 µM
GI50 (SF-268 CNS): 1.81 µM
TGI (SF-268 CNS): 20.2 µM
GI50 (786-0 renal): 1.6 µM
TGI (786-0 renal): 18.4 µM
GI50 (HT29 colon): 0.393 µM
TGI (HT29 colon): > 82.5 µM
GI50 (SK-MEL-2 melanoma): 1.77 µM
TGI (SK-MEL-2 melanoma): 26.4 µM
GI50 (HCT-116 colon): 0.438 µM
TGI (HCT-116 colon): 16.2 µM
GI50 (M14 melanoma): 0.466 µM
TGI (M14 melanoma): 29.7 µM
GI50 (HOP-92 NSCLC): 4.27 µM
TGI (HOP-92 NSCLC): 32.4 µM
GI50 (RPMI-8226 leukemia): 0.511 µM
TGI (RPMI-8226 leukemia): > 23.1 µM
GI50 (PC-3 prostate): 2.89 µM
TGI (PC-3 prostate): 31 µM
GI50 (IGROV1 ovarian): 1.94 µM
TGI (IGROV1 ovarian): 16.6 µM
GI50 (UACC-62 melanoma): 0.622 µM
TGI (UACC-62 melanoma): 16.4 µM
GI50 (HCT-15 colon): 0.403 µM
TGI (HCT-15 colon): 17.3 µM
GI50 (COLO 205 colon): 3.61 µM
TGI (COLO 205 colon): 20.2 µM
GI50 (A498 renal): 0.219 µM
TGI (A498 renal): 0.746 µM
GI50 (T-47D breast): 0.665 µM
TGI (T-47D breast): 31 µM
GI50 (SK-MEL-28 melanoma): 4.61 µM
TGI (SK-MEL-28 melanoma): 23.7 µM

O=C(Nc1ccc(Cl)cc1)NS(=O)(=O)c1c(-c2ccccc2)oc2ccccc2c1=O
TGI (EKVX NSCLC): > 100 µM
TGI (KM12 colon): > 100 µM
TGI (UACC-257 melanoma): > 100 µM
TGI (HOP-62 NSCLC): > 100 µM
TGI (RXF 393 renal): > 100 µM
TGI (ACHN renal): > 100 µM
TGI (CAKI-1 renal): > 100 µM
TGI (MDA-MB-435): > 100 µM
TGI (OVCAR-4 ovarian): > 100 µM
TGI (MALME-3M melanoma): > 100 µM
TGI (NCI-H226 lung): > 100 µM
TGI (SR leukemia): > 100 µM
TGI (MDA-N): > 100 µM
TGI (HL-60(TB) leukemia): > 100 µM
TGI (SNB-19 CNS): > 100 µM
TGI (SN12C renal): > 100 µM
TGI (SW-620 colon): > 100 µM
TGI (UO-31 renal): > 100 µM
TGI (K-562 leukemia): > 100 µM
TGI (SK-MEL-5 melanoma): > 100 µM
TGI (U251 CNS): > 100 µM
TGI (NCI-H460 lung): > 100 µM
TGI (CCRF-CEM leukemia): > 100 µM
TGI (HCC-2998 colon): > 100 µM
TGI (NCI-H522 lung): 31.2 µM
TGI (OVCAR-5 ovarian): > 100 µM
TGI (DU-145 prostate): > 100 µM
TGI (SK-OV-3 ovarian): > 100 µM
TGI (SNB-75 CNS): > 100 µM
TGI (TK-10 renal): 86.9 µM
TGI (SF-539 CNS): > 100 µM
TGI (NCI/ADR-RES ovarian): > 100 µM
TGI (OVCAR-8 ovarian): > 100 µM
TGI (A549 NSCLC): > 100 µM
TGI (SF-295 CNS): > 100 µM
TGI (LOX IMVI melanoma): > 100 µM
TGI (MOLT-4 leukemia): > 100 µM
TGI (HS 578T breast): > 100 µM
TGI (NCI-H23 lung): > 100 µM
TGI (SF-268 CNS): > 100 µM
TGI (786-0 renal): > 100 µM
TGI (HT29 colon): > 100 µM
TGI (SK-MEL-2 melanoma): > 100 µM
TGI (HCT-116 colon): > 100 µM
TGI (HOP-92 NSCLC): > 100 µM
TGI (RPMI-8226 leukemia): > 100 µM
TGI (PC-3 prostate): > 100 µM
TGI (IGROV1 ovarian): > 100 µM
TGI (UACC-62 melanoma): 13.6 µM
TGI (HCT-15 colon): > 100 µM
TGI (COLO 205 colon): > 100 µM
TGI (A498 renal): > 100 µM
TGI (T-47D breast): > 100 µM
TGI (SK-MEL-28 melanoma): > 100 µM
